Assay results from patent US8415106B2, “Cell-based screen for agents useful for reducing neuronal demyelination or promoting neuronal remyelination” (Myelin Repair Foundation, Inc., priority 2005, dated 2013).

What was measured:
[1] = system: myelin basic protein (MBP); assay: Hippocampal organotypic cultures (HOC), in vitro model of myelination, MBP Western blot; assay type: cell-based; details: 7 days
Protocol: HOCs, were prepared and maintained as described previously (Kunkler and Kraig (1997) J Cereb Blood Flow Metab. 17:26-43), and were maintained in vitro for 7 days before use. SAL at various concentrations was combined with 100 U/ml IFN-γ and added to the HOC cultures for 7 days. […] After 7 days of 100 U/ml IFN-γ exposure, the levels of MBP decreased approximately 80% in the HOCs (FIG. 29).

PP1-GADD34 phosphatase = details: Boyce, et al. (2005) Science 307:935-939; cited from earlier work

For `O=C(/C=C/c1ccccc1)NC(NC(=S)Nc1cccc2cccnc12)C(Cl)(Cl)Cl` (stereo not drawn) [SAL, salubrinal], the “reduction of MBP expression elicited by IFN-γ exposure” value ([1]; SAL at various concentrations combined with 100 U/ml IFN-γ) is given as “markedly attenuated”, the MBP expression ([1]; SAL treatment alone) is given as “did not affect MBP expression” and the PP1-GADD34 phosphatase activity (PP1-GADD34 phosphatase) is given as “specifically inhibits the PP1-GADD34 phosphatase activity”.
